Data set [1] is described as follows: Drug level in zebrafish brain at 10 mg/kg, po administered via gavage measured 0.5 hrs post compound administration by LC-MS/MS analysis. It is filed as ADME, organism-based, Danio rerio. To be noted: read-out: Drug uptake.
Data set [2] is filed under the species Homo sapiens. The data set can be described thus: Effect on SOX2 mRNA expression in human TS15-88 cells after 72 hrs by qRT-PCR analysis. In kind it is functional, cell-based.
Data set [3] concerns the target T1, P2X purinoceptor 4 (Homo sapiens) (UniProt Q99571).
T1 sequence (whole entry): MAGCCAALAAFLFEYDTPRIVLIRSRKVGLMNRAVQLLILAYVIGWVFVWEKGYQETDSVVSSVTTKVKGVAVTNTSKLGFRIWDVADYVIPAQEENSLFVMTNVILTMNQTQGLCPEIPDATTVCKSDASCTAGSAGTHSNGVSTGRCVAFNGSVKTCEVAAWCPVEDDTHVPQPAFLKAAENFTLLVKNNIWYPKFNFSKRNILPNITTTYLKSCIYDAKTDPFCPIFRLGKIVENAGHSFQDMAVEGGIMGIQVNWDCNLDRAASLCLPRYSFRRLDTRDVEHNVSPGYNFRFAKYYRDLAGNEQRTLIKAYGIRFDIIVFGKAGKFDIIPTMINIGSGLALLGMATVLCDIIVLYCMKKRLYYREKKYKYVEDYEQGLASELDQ
The data set can be described thus: Antagonist activity at human P2X4 receptor expressed in 1321N1 cells assessed as inhibition of ATP-induced calcium flux at 1 uM measured for 30 secs at 0.4 secs intervals by Flou-4-AM dye based fluorescence assay relative to control. It is filed as cell-based.

Data set [4] addresses T2, P2X purinoceptor 7 (Homo sapiens) (UniProt Q99572).
T2 sequence (whole entry): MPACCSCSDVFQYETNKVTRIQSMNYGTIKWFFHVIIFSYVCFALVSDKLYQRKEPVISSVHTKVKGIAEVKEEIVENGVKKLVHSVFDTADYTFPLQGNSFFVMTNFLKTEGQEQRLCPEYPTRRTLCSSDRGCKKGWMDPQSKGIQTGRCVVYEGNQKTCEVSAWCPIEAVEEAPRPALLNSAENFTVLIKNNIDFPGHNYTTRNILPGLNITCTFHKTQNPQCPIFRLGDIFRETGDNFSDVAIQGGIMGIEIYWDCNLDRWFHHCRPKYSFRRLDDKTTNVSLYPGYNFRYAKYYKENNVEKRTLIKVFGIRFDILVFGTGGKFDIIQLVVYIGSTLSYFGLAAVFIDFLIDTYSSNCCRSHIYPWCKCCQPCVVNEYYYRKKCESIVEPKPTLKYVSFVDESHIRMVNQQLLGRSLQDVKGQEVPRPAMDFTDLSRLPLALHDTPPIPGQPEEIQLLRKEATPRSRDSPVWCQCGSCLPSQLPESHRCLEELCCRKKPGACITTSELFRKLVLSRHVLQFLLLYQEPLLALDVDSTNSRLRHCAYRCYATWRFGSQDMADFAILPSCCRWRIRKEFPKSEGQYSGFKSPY
The data set can be described thus: Antagonist activity at human P2X7 receptor expressed in HEK293 cells assessed as inhibition of BzATP-induced EtBr uptake at 1 uM after 2 hrs by fluorescence assay relative to control. It is filed as cell-based.

Data set [5] concerns the target T2, P2X purinoceptor 7 (Homo sapiens). The data set can be described thus: Antagonist activity at human P2X7 receptor expressed in HEK293 cells assessed as inhibition of BzATP-induced EtBr uptake at 10 uM after 2 hrs by fluorescence assay relative to control. It is filed as cell-based.
The next data set addresses T3, P2X purinoceptor 7 (Homo sapiens, UniProt Q99572).
T3 sequence (Q99572 whole entry): T2 sequence (whole entry)
Put plainly: Antagonist activity at human P2X7 receptor expressed in HEK293 cells assessed as inhibition of BzATP-induced EtBr uptake after 2 hrs by fluorescence assay relative to control. It is filed as cell-based.

The nature of data set [6]: Inhibition of neurosphere formation in human TS15-88 cells assessed as decrease in sphere size at 50 uM after 5 days by microscopic analysis relative to control. In kind it is functional. To be noted: 120 h.
The nature of data set [7]: Metabolic stability in rat liver microsomes assessed as parent compound remaining at 1 uM up to 30 mins in presence of NADPH by LC-MS/MS analysis. In kind it is ADME, microsome. The following applies: read-out: Stability. (In general: Microsomes from liver hold many membrane-bound enzymes, among them those of drug oxidation.)
Data set [8] is filed under the species Homo sapiens. The data set can be described thus: Antiproliferative activity against human TS15-88 cells at 50 uM after 24 hrs by MTS assay. It is filed as functional, cell-based. Background: Tetrazolium dyes change colour on reduction, which living cells bring about.

Structures are written as SMILES. Calls of active or inactive are those of the source. The rule behind the calls is not given here.

What is called inhibition is the share of the control response that was lost under treatment. For orientation: IC50 means the concentration needed to halve the response being measured. Regarding `O=C(CC12CC3CC(CC(C3)C1)C2)Nc1cccc2nc(Cl)ccc12`, the concentration at 0.5 h in [1] was 425 ng/g. For the same compound, in the data set filed under Homo sapiens [2], the outcome was inactive. Moreover, the figures for the inhibition in [3], in data set [4] and in data set [5] were 4%, 89% and 97%, respectively. In addition, the IC50 at P2X purinoceptor 7 is 4 nM. In addition, in data set [6], the inhibition at 50 µM was over 50%. The remaining at 0.5 h, 1 µM in [7] is 0.06%. The outcome in the data set listed under Homo sapiens [8] was Active.

For the origin of these results see ChEMBL document CHEMBL4152208, “Synthesis and structure-activity relationships of quinolinone and quinoline-based P2X7 receptor antagonists and their anti-sphere formation activities in glioblastoma cells” (Eur J Med Chem, 2018).
